The source of these data is patent US8318731B2, “Pyrrolopyrimidines” (Janssen Pharmaceutica NV, priority 2007, dated 2012).

Assay [1] concerns the target T1, PLK4 (h) (Homo sapiens, UniProt O00444).
T1 sequence (O00444 1-970): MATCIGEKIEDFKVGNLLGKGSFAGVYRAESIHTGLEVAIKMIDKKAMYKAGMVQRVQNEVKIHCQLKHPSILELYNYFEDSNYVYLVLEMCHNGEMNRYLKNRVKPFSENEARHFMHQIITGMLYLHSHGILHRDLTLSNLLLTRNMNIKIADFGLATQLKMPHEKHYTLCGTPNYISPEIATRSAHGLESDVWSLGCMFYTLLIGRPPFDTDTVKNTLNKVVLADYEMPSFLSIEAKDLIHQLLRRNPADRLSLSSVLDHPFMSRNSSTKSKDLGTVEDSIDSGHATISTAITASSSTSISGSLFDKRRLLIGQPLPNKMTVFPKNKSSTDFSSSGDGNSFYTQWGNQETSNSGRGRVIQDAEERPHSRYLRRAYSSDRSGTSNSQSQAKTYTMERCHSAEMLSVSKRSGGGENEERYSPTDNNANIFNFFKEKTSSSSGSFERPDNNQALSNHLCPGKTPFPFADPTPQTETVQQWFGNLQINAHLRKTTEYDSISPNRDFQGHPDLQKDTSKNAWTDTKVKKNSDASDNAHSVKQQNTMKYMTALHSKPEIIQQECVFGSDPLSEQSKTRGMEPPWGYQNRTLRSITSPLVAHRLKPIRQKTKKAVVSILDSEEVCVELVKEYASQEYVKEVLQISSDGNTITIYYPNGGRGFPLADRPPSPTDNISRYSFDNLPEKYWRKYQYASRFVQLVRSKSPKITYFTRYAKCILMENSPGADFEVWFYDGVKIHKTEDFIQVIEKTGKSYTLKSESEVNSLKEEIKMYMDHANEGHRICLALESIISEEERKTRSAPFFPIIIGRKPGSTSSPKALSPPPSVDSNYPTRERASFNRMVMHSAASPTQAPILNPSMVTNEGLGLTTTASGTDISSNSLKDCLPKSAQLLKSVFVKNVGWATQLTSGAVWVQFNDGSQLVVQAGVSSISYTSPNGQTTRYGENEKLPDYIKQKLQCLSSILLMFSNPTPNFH
The assay is described as follows: PLK-4 human kinase scintillation proximity assay (SPA). The class given is biochemical. The following applies: 1 μM ATP, 60 minutes at r.t., read-out: PLK4 pIC50 (converted). Here is the method: The in vitro inhibition of a panel of kinases was assessed using either the scintillation proximity assay (SPA) as described by Cook, N. D. et al., Advances in Experimental Medicine and Biology (1991), 36; p. 525-528.
In the SPA technology the activity of the kinase of interest is measured using an appropriate biotinylated substrate that is incubated with the aforementioned kinase protein in the presence of (^33P) radiolabeled ATP. (^33P) Phosphorylation of the substrate is subsequently measured through binding of the phosphorylated substrate to streptavidine coated beads that are based on the scintillant poly(vinyl toluene) (PVT-Beads). The scintillation intensity is detected by imaging on Leadseeker.
All kinases are pre-diluted to a 10× working concentration prior to addition into the assay. The composition of the dilution buffer for each kinase is detailed below.
In a final reaction volume of 30 μl, PLK4 (h) (19 μg/ml) is incubated with 50 mM Hepes pH 8.0, 10 mM MgCl2, 50 mM NaCl, 1 mM NaF, 1 mM DTT, 10 μM of peptide Biotin-RPRGQRDSSYYWE-OH, 1 μM ATP and 2 nM [γ-^33P-ATP] (6.0 μCi/ml). After incubation of 60 minutes at r.t., the reaction is stopped by addition of 40 μL of stop solution containing 8.7 mM EDTA, BSA 0.17%, 0.17% Triton X-100, 1.7 mg/ml SPA beads (GE-healthcare). The plate is centrifuged and read for Scintillation imaging on Leadseeker.
For orientation: Scintillation proximity formats need no separation of bound from free tracer.

The test system of assay [2] is A2780. The assay is described as follows: Cellular proliferation assay (Alamar blue), A2780. The class given is cell-based. The following applies: Homo sapiens, A2780, A2780 cells; 10% FCS; 72 h with compound; Alamar blue 24 h; read-out: pIC50 A2780 (converted). Here is the method: (§1) Cellular proliferation of these compounds was tested on a panel of different cell lines in the presence of 10% FCS serum (37° C. and 5% (v/v) CO2). In a first step these cells were seeded and incubated for 24 hours in the absence of compound. In the second step the cells were incubated for 72 hours with the compounds to be tested for 72 hours. The viable cell number was finally assessed in a standard Alamar blue cell viability assay.
(§2) The viable cell number was assessed by incubation for either 4 h (HCT-116, H1299) 6 h (U87-MG) or 24 h (A2780, PC3, MDA-MB-231) with Alamar blue (Resazurin 9 μg/ml, K-Ferrocyanide 90 μM, K-Ferricyanide 90 μM) and the converted fluorescent product was quantified on a fluorescent plate readed (544 nm/590 nm). Effect of the compounds is calculated as of on control cells.

For assay [3], the system named is HCT-116. Description: Cellular proliferation assay (Alamar blue), HCT-116. The class given is cell-based. Particulars: Homo sapiens; HCT-116 cells; 10% FCS; 72 h with compound; Alamar blue 4 h; read-out: pIC50 HCT-116 (converted). Here is the method:
as §1, §2
(In general: Resazurin is reduced to fluorescent resorufin, in cell work by metabolically active cells.)

Assay [4] concerns H1299. The assay is described as follows: Cellular proliferation assay (Alamar blue), H1299. The class given is cell-based. The following applies: Homo sapiens, NCI-H1299, H1299 cells; 10% FCS; 72 h with compound; Alamar blue 4 h; read-out: pIC50 H1299 (converted). As to the method:
as §1, §2

Assay [5] concerns MDA-MB-231. The assay is described as follows: Cellular proliferation assay (Alamar blue), MDA-MB-231. Particulars: Homo sapiens, MDA-MB-231, MDA-MB-231 cells; 10% FCS; 72 h with compound; Alamar blue 24 h; read-out: pIC50 MDA/MB231 (converted). The class given is cell-based. As to the method:
as §1, §2

Assay [6] relates to PC3. Description: Cellular proliferation assay (Alamar blue), PC3. The format is cell-based. Particulars: Homo sapiens, PC-3, PC-3 cells; 10% FCS; 72 h with compound; Alamar blue 24 h; read-out: pIC50 PC-3 (converted). Here is the method: as §1, §2

The structures appear in SMILES notation.

With `COc1ccc2cc1CN(C)[C@@H](CO)C(=O)N(C)CCCc1c[nH]c3ncnc(c13)N2` [Compound 9], the IC50 in assay [1] was over 10 µM.
In the case of `CN1CCCN(C)C(=O)COc2cc(ccc2OCc2ccccc2)Nc2ncnc3[nH]cc(c23)C1` [Compound 11], the IC50 in assay [1] is 0.0501 µM.
Take `COc1ccc2cc1OCCCC(=O)NCCCN(C)Cc1c[nH]c3ncnc(c13)N2` [Compound 25]: in assay [1], the IC50 was 0.631 µM.
On the same count and under the same terms, the result for `CN1CCCN(C)C(=O)CCCOc2cccc(c2)Nc2ncnc3[nH]cc(c23)C1` [Compound 32] reads 0.501 µM; that for `COc1ccc2cc1OCC(=O)N[C@H](Cc1ccccc1)CN(C)CCCc1c[nH]c3ncnc(c13)N2` [Compound 39], over 10 µM; that for `CN1CCCN(C)C(=O)CCCOc2cc(ccc2Cl)Nc2ncnc3[nH]cc(c23)C1` [Compound 43], 0.501 µM.
The same measure, in the same setting: the figure for `COc1ccc2cc1CN(C)[C@@H](Cc1ccccc1)C(=O)N(C)CCCc1c[nH]c3ncnc(c13)N2` [Compound 51] is over 10 µM; for `COc1ccc2cc1CN(C)[C@@H](CC(C)C)C(=O)N(C)CCCc1c[nH]c3ncnc(c13)N2` [Compound 52] it is over 10 µM.
For `COc1ccc2cc1CCC(=O)N(C)CCCN(C)Cc1c[nH]c3ncnc(c13)N2` [Compound 55], the IC50 in assay [1] is 0.794 µM.
For the compound `COc1cc2cc(c1OC)OCCCC(=O)N(C)CCCN(C)Cc1c[nH]c3ncnc(c13)N2` [Compound 69], the IC50 in assay [2] was over 10 µM; in assay [3] it was over 10 µM; in assay [4], over 10 µM; in assay [5], over 10 µM; in assay [6] it was over 10 µM; in assay [1], 2 µM.
Regarding `CN1CCCN(C)C(=O)CCCOc2cc(cc(C(F)(F)F)c2)Nc2ncnc3[nH]cc(c23)C1` [Compound 83], the IC50 is over 10 µM in assay [2]; over 10 µM in assay [3]; 3.98 µM in assay [4]; over 10 µM in assay [5]; over 10 µM in assay [6]; 5.01 µM in assay [1].
Turning to `COc1ccc2cc1OCC(=O)N(C)CC1CN(Cc3c[nH]c4ncnc(c34)N2)C1` [Compound 89], the IC50 in assay [2] was over 10 µM; in assay [3], over 10 µM; in assay [4], over 10 µM; in assay [5] it was over 10 µM; in assay [6] it was over 10 µM; in assay [1], 0.251 µM.
`CN1CCCN(C)C(=O)COc2cc(ccc2OC2CCCC2)Nc2ncnc3[nH]cc(c23)C1` [Compound 90]: in assay [1], the IC50 was 0.0316 µM.
For `CN1CCCN(C)C(=O)COc2cc(ccc2OCC(=O)NC2CCCC2)Nc2ncnc3[nH]cc(c23)C1` [Compound 91], the IC50 is 0.794 µM in assay [2]; 1.58 µM in assay [3]; 3.16 µM in assay [4]; over 10 µM in assay [5]; over 10 µM in assay [6]; 0.0251 µM in assay [1].
For the compound `CN1CCN(C)C(=O)CCCCOc2cc(cc(C(F)(F)F)c2)Nc2ncnc3[nH]cc(c23)C1` [Compound 92], the IC50 in assay [2] is over 10 µM; in assay [3], over 10 µM; in assay [4], 6.31 µM; in assay [5] it was over 10 µM; in assay [6], over 10 µM; in assay [1], over 10 µM.
With `CN1CCN(C)C(=O)CCCOc2cc(cc(C(F)(F)F)c2)Nc2ncnc3[nH]cc(c23)C1` [Compound 93], the IC50 in assay [2] was over 10 µM; in assay [3], over 10 µM; in assay [4], 1.26 µM; in assay [5], over 10 µM; in assay [6] it was over 10 µM; in assay [1], 6.31 µM.
Consider `CN1CCN(c2ccc3cc2OCCCC(=O)N(C)CCN(C)Cc2c[nH]c4ncnc(c24)N3)CC1` [Compound 94], for which the IC50 in assay [2] was over 10 µM; in assay [3], over 10 µM; in assay [4] it was over 10 µM; in assay [5] it was over 10 µM; in assay [6] it was 10 µM; in assay [1], 5.01 µM.
For the compound `COc1cc2cc(c1OC)OCCCC(=O)N(C)CCN(C)Cc1c[nH]c3ncnc(c13)N2` [Compound 95], the IC50 in assay [2], in assay [3], in assay [4], in assay [5], in assay [6] and in assay [1] was over 10 µM each time.
For the compound `COc1cc2cc(c1OC)OCC(=O)N(C)CCN(C)Cc1c[nH]c3ncnc(c13)N2` [Compound 96], the IC50 was over 10 µM in assay [2]; over 10 µM in assay [3]; over 10 µM in assay [4]; over 10 µM in assay [5]; over 10 µM in assay [6]; 5.01 µM in assay [1].
Consider `CN1CCN(C)C(=O)COc2cc(ccc2N2CCOCC2)Nc2ncnc3[nH]cc(c23)C1` [Compound 97], for which the IC50 in assay [2] was over 10 µM; in assay [3] it was over 10 µM; in assay [4], over 10 µM; in assay [5] it was over 10 µM; in assay [6] it was over 10 µM; in assay [1], 0.794 µM.
In the case of `CN1CCCN(C)C(=O)COc2cc(ccc2OCCOC2CCCC2)Nc2ncnc3[nH]cc(c23)C1` [Compound 99], the IC50 in assay [3] was 0.0631 µM; in assay [4], 0.0398 µM; in assay [5] it was over 10 µM; in assay [6], 6.31 µM; in assay [1], 0.0251 µM.
With `CC(C)Oc1ccc2cc1OCC(=O)N(C)CCCN(C)Cc1c[nH]c3ncnc(c13)N2` [Compound 100], the IC50 in assay [2] is 1.58 µM; in assay [3] it was 1.58 µM; in assay [4], 0.631 µM; in assay [5] it was 6.31 µM; in assay [6], 2 µM; in assay [1], 0.0501 µM.
Turning to `CCCOc1ccc2cc1OCC(=O)N(C)CCCN(C)Cc1c[nH]c3ncnc(c13)N2` [Compound 101], the IC50 in assay [2] was 1.58 µM; in assay [3] it was 1.58 µM; in assay [4], 0.794 µM; in assay [5] it was 7.94 µM; in assay [6] it was 2 µM; in assay [1] it was 0.0398 µM.
Turning to `O=C1CCCOc2cc(ccc2N2CCOCC2)Nc2ncnc3[nH]cc(c23)CN2CCN1CC2` [Compound 110], in assay [1], the IC50 is 7.94 µM.
On the same count and under the same terms, the figure for `CN1CCCN(C)C(=O)COc2cc(ccc2OC2CCOC2)Nc2ncnc3[nH]cc(c23)C1` (centres unmarked) [Compound 135] is 0.158 µM.
